Data taken from patent US20060252807A1, “Novel ortho-terphenyl inhibitors of p38 kinase and methods of treating inflammatory disorders” (Kalypsys, Inc., priority 2005, published 2006).

Target: T1, active p38 alpha enzyme (Upstate Biotechnology) (Homo sapiens, UniProt Q16539)
T1 construct: purchased Upstate Biotechnology
Assay: p38α biochemical assay (ATP turnover, luminescent detection, Cambrex PKlight)
Conditions: p38α kinase; Table 1 Biological Activity
Outline: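 Compounds in DMSO are added to active p38 alpha with MapkapK2 whole protein and ATP at 1.4 uM final. Reactions then run for 2 hours at 30C. A luminescent reagent is added last to quantify total ATP consumed.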

T1 sequence (Q16539 whole entry): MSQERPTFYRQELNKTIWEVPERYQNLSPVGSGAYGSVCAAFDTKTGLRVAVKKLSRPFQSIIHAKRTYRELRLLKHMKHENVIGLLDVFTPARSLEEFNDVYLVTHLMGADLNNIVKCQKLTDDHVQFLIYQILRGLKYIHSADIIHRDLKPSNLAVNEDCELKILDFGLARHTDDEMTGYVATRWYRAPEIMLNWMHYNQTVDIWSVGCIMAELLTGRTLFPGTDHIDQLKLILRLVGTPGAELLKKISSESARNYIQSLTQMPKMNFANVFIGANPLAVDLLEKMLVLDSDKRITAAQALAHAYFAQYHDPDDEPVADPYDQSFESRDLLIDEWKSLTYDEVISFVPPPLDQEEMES

Row | Compound | IC50 [nM]
1 | Cc1nc(-c2ccc(F)cc2)c(-c2nc(C(=O)N3CCC(NC(=O)OC(C)(C)C)C3)cs2)s1 (stereo not drawn) [Example 1910] | > 1000
2 | Cc1nc(-c2ccc(F)cc2)c(-c2nc(C(=O)N3CCN(c4ccccc4C#N)CC3)cs2)s1 [Example 1911] | ≤ 1000
3 | Cc1nc(-c2ccc(F)cc2)c(-c2nc(C(=O)N3CCN(c4ccc(C#N)cn4)CC3)cs2)s1 [Example 1912] | > 1000
4 | Cc1nc(-c2ccc(F)cc2)c(-c2nc(C(=O)N3CCN(c4cccc(C)c4C)CC3)cs2)s1 [Example 1913] | > 1000
5 | Cc1cccc(N2CCN(C(=O)c3csc(-c4sc(C)nc4-c4ccc(F)cc4)n3)CC2C)c1 (stereo not drawn) [Example 1915] | ≤ 1000
6 | Cc1nc(-c2ccc(F)cc2)c(-c2nc(C(=O)N3CCN(CCc4ccccc4)CC3)cs2)s1 [Example 1916] | > 1000
7 | Cc1nc(-c2ccc(F)cc2)c(-c2nc(C(=O)N3CCN(c4ccc(C)c(C)c4)CC3)cs2)s1 [Example 1917] | > 1000
8 | Cc1ccc(N2CCN(C(=O)c3csc(-c4sc(C)nc4-c4ccc(F)cc4)n3)CC2)c(C)c1 [Example 1918] | > 1000
9 | Cc1ccc(C)c(N2CCN(C(=O)c3csc(-c4sc(C)nc4-c4ccc(F)cc4)n3)CC2)c1 [Example 1919] | > 1000
10 | COc1ccc(N2CCN(C(=O)c3csc(-c4sc(C)nc4-c4ccc(F)cc4)n3)CC2)cc1 [Example 1920] | > 1000
11 | COc1ccccc1N1CCN(C(=O)c2csc(-c3sc(C)nc3-c3ccc(F)cc3)n2)CC1 [Example 1921] | > 1000
12 | COc1cccc(N2CCN(C(=O)c3csc(-c4sc(C)nc4-c4ccc(F)cc4)n3)CC2)c1 [Example 1922] | > 1000
13 | COc1ccc(CCN(C)C(=O)c2csc(-c3sc(C)nc3-c3ccc(F)cc3)n2)cc1OC [Example 1923] | > 1000
14 | Cc1nc(-c2ccc(F)cc2)c(-c2nc(C(=O)N3CCN(c4cccc(Cl)c4)CC3)cs2)s1 [Example 1924] | > 1000
15 | Cc1nc(-c2ccc(F)cc2)c(-c2nc(C(=O)N3CCN(c4ccc(Cl)cc4)CC3)cs2)s1 [Example 1925] | > 1000
16 | Cc1nc(-c2ccc(F)cc2)c(-c2nc(C(=O)N3CCN(c4ccc(F)cc4F)CC3)cs2)s1 [Example 1927] | > 1000
17 | Cc1nc(-c2ccc(F)cc2)c(-c2nc(C(=O)N(Cc3cccnc3)Cc3cccnc3)cs2)s1 [Example 1928] | > 1000
18 | Cc1nc(-c2ccc(F)cc2)c(-c2nc(C(=O)N3CCN(CCN4CCOCC4)CC3)cs2)s1 [Example 1929] | > 1000
19 | Cc1nc(-c2ccc(F)cc2)c(-c2nc(C(=O)N3CCC(N(C)C(=O)OC(C)(C)C)C3)cs2)s1 (stereo not drawn) [Example 1930] | > 1000
20 | CC(=O)c1ccc(N2CCN(C(=O)c3csc(-c4sc(C)nc4-c4ccc(F)cc4)n3)CC2)cc1 [Example 1931] | > 1000
21 | CCN(CC)CCN(Cc1ccccc1)C(=O)c1csc(-c2sc(C)nc2-c2ccc(F)cc2)n1 [Example 1932] | > 1000
22 | Cc1nc(-c2ccc(F)cc2)c(-c2nc(C(=O)N3CCN(c4ccc([N+](=O)[O-])cc4)CC3)cs2)s1 [Example 1933] | > 1000
23 | Cc1nc(-c2ccc(F)cc2)c(-c2nc(C(=O)N(C)Cc3cccc4ccccc34)cs2)s1 [Example 1934] | > 1000
24 | Cc1nc(-c2ccc(F)cc2)c(-c2nc(C(=O)N3CCN(c4cc(Cl)ccc4C)CC3)cs2)s1 [Example 1935] | > 1000
25 | COc1cc(CN(C)C(=O)c2csc(-c3sc(C)nc3-c3ccc(F)cc3)n2)cc(OC)c1OC [Example 1936] | ≤ 1000

Row | Compound | IC50 [nM]
26 | Cc1nc(-c2ccc(F)cc2)c(-c2nc(C(=O)N(CCc3ccccc3)Cc3ccccc3)cs2)s1 [Example 1937] | > 1000
27 | Cc1nc(-c2ccc(F)cc2)c(-c2nc(C(=O)N(C)C(Cc3ccccc3)c3ccccc3)cs2)s1 (stereo not drawn) [Example 1939] | > 1000
28 | Cc1nc(-c2ccc(F)cc2)c(-c2nc(C(=O)N3CCC(O)(c4ccc(Cl)cc4)CC3)cs2)s1 [Example 1940] | > 1000
29 | C#CCN(Cc1ccc(Cl)cc1Cl)C(=O)c1csc(-c2sc(C)nc2-c2ccc(F)cc2)n1 [Example 1941] | > 1000
30 | CCN(C(=O)c1csc(-c2sc(C)nc2-c2ccc(F)cc2)n1)C(Cc1ccccc1)c1ccco1 (stereo not drawn) [Example 1942] | > 1000
31 | Cc1nc(-c2ccc(F)cc2)c(-c2nc(C(=O)N3CCN(C(=O)OC(C)(C)C)C[C@H]3CO)cs2)s1 [Example 1943] | > 1000
32 | Cc1nc(-c2ccc(F)cc2)c(-c2nc(C(=O)N3CCN(c4ccc(C(C)(C)C)cc4)CC3)cs2)s1 [Example 1944] | > 1000
33 | Cc1nc(-c2ccc(F)cc2)c(-c2nc(C(=O)N3CCN(Cc4ccc5c(c4)OCO5)CC3)cs2)s1 [Example 1945] | > 1000
34 | COc1cc2c(cc1OC)CN(C(=O)c1csc(-c3sc(C)nc3-c3ccc(F)cc3)n1)CC2 [Example 1946] | ≤ 1000
35 | Cc1nc(-c2ccc(F)cc2)c(-c2nc(C(=O)N3CCN(c4ccc(C(F)(F)F)cc4)CC3)cs2)s1 [Example 1947] | > 1000
36 | Cc1nc(-c2ccc(F)cc2)c(-c2nc(C(=O)N3CCN(c4cccc(C(F)(F)F)c4)CC3)cs2)s1 [Example 1948] | > 1000
37 | Cc1nc(-c2ccc(F)cc2)c(-c2nc(C(=O)N3CCN(c4ccc(Cl)c(Cl)c4)CC3)cs2)s1 [Example 1949] | > 1000
38 | Cc1nc(-c2ccc(F)cc2)c(-c2nc(C(=O)N3CCN(c4ccc(C(F)(F)F)cn4)CC3)cs2)s1 [Example 1951] | > 1000
39 | Cc1nc(-c2ccc(F)cc2)c(-c2nc(C(=O)N3CCN(c4ccccc4Cl)CC3)cs2)s1 [Example 1952] | > 1000
40 | COc1ccc(N2CCN(C(=O)c3csc(-c4sc(C)nc4-c4ccc(F)cc4)n3)CC2)cc1OC [Example 1953] | > 1000
41 | Cc1nc(-c2ccc(F)cc2)c(-c2nc(C(=O)N3CCCC(c4ccc(C(F)(F)F)cc4)C3)cs2)s1 (stereo not drawn) [Example 1954] | > 1000
42 | Cc1nc(-c2ccc(F)cc2)c(-c2nc(C(=O)Nc3ccccc3)cs2)s1 [Example 1955] | > 1000
43 | Cc1cccc(NC(=O)c2csc(-c3sc(C)nc3-c3ccc(F)cc3)n2)c1 [Example 1956] | > 1000
44 | Cc1ccc(NC(=O)c2csc(-c3sc(C)nc3-c3ccc(F)cc3)n2)cc1 [Example 1957] | > 1000
45 | Cc1nc(-c2ccc(F)cc2)c(-c2nc(C(=O)Nc3ccccc3C)cs2)s1 [Example 1958] | > 1000
46 | Cc1ccc(NC(=O)c2csc(-c3sc(C)nc3-c3ccc(F)cc3)n2)nc1 [Example 1959] | > 1000
47 | Cc1cccc(NC(=O)c2csc(-c3sc(C)nc3-c3ccc(F)cc3)n2)n1 [Example 1960] | > 1000
48 | Cc1ccnc(NC(=O)c2csc(-c3sc(C)nc3-c3ccc(F)cc3)n2)c1 [Example 1961] | > 1000
49 | Cc1nc(-c2ccc(F)cc2)c(-c2nc(C(=O)Nc3ncccc3C)cs2)s1 [Example 1962] | > 1000
50 | Cc1nc(-c2ccc(F)cc2)c(-c2nc(C(=O)Nc3ccccc3F)cs2)s1 [Example 1963] | > 1000

Row | Compound | IC50 [nM]
51 | Cc1nc(-c2ccc(F)cc2)c(-c2nc(C(=O)Nc3ccc(F)cc3)cs2)s1 [Example 1964] | > 1000
52 | Cc1ccc(C)c(NC(=O)c2csc(-c3sc(C)nc3-c3ccc(F)cc3)n2)c1 [Example 1965] | > 1000
53 | Cc1nc(-c2ccc(F)cc2)c(-c2nc(C(=O)Nc3ccc(C)c(C)c3)cs2)s1 [Example 1966] | > 1000
54 | CCc1ccccc1NC(=O)c1csc(-c2sc(C)nc2-c2ccc(F)cc2)n1 [Example 1967] | > 1000
55 | Cc1ccc(NC(=O)c2csc(-c3sc(C)nc3-c3ccc(F)cc3)n2)c(C)c1 [Example 1970] | > 1000
56 | Cc1cc(C)cc(NC(=O)c2csc(-c3sc(C)nc3-c3ccc(F)cc3)n2)c1 [Example 1971] | > 1000
57 | COc1cccc(NC(=O)c2csc(-c3sc(C)nc3-c3ccc(F)cc3)n2)c1 [Example 1972] | > 1000
58 | COc1ccc(NC(=O)c2csc(-c3sc(C)nc3-c3ccc(F)cc3)n2)cc1 [Example 1973] | > 1000
59 | COc1ccccc1NC(=O)c1csc(-c2sc(C)nc2-c2ccc(F)cc2)n1 [Example 1974] | ≤ 1000
60 | COc1ccncc1NC(=O)c1csc(-c2sc(C)nc2-c2ccc(F)cc2)n1 [Example 1975] | ≤ 1000
61 | Cc1nc(-c2ccc(F)cc2)c(-c2nc(C(=O)Nc3ccc(C)c(F)c3)cs2)s1 [Example 1976] | > 1000
62 | Cc1nc(-c2ccc(F)cc2)c(-c2nc(C(=O)Nc3cccc(F)c3C)cs2)s1 [Example 1977] | > 1000
63 | Cc1nc(-c2ccc(F)cc2)c(-c2nc(C(=O)Nc3ccc(F)cc3F)cs2)s1 [Example 1979] | > 1000
64 | Cc1nc(-c2ccc(F)cc2)c(-c2nc(C(=O)Nc3ccc4c(c3)CCC4)cs2)s1 [Example 1981] | > 1000
65 | Cc1nc(-c2ccc(F)cc2)c(-c2nc(C(=O)Nc3ccccc3C(C)C)cs2)s1 [Example 1982] | > 1000
66 | CC(=O)c1cccc(NC(=O)c2csc(-c3sc(C)nc3-c3ccc(F)cc3)n2)c1 [Example 1983] | ≤ 1000
67 | CC(=O)c1ccc(NC(=O)c2csc(-c3sc(C)nc3-c3ccc(F)cc3)n2)cc1 [Example 1984] | > 1000
68 | CCc1cccc(C)c1NC(=O)c1csc(-c2sc(C)nc2-c2ccc(F)cc2)n1 [Example 1985] | > 1000
69 | Cc1cc(C)c(NC(=O)c2csc(-c3sc(C)nc3-c3ccc(F)cc3)n2)c(C)c1 [Example 1986] | > 1000
70 | Cc1nc(-c2ccc(F)cc2)c(-c2nc(C(=O)Nc3ccc4c(c3)OCO4)cs2)s1 [Example 1987] | ≤ 1000
71 | COc1ccc(NC(=O)c2csc(-c3sc(C)nc3-c3ccc(F)cc3)n2)c(C)c1 [Example 1988] | ≤ 1000
72 | CCOc1cccc(NC(=O)c2csc(-c3sc(C)nc3-c3ccc(F)cc3)n2)c1 [Example 1989] | > 1000
73 | CCOc1ccccc1NC(=O)c1csc(-c2sc(C)nc2-c2ccc(F)cc2)n1 [Example 1990] | > 1000
74 | CSc1ccccc1NC(=O)c1csc(-c2sc(C)nc2-c2ccc(F)cc2)n1 [Example 1991] | > 1000
75 | Cc1nc(-c2ccc(F)cc2)c(-c2nc(C(=O)Nc3cccc(Cl)c3C)cs2)s1 [Example 1992] | ≤ 1000
